Test: Example 1: kidney biomarkers (urea nitrogen, creatinine, GFR) in short bowel syndrome patients, every four weeks for 24 weeks; also sorted by >5% change from baseline
Assay type: in vivo, Human
Conditions: 0.05 mg/kg/day
Protocol: Human patients with short bowel syndrome were divided into three groups: a control group (16 total individuals) to receive placebo, an experimental group (35 total individuals) to receive teduglutide at 0.05 mg/kg/day throughout the study, and an experimental group (32 total individuals) to receive teduglutide at 0.1 mg/kg/day throughout the study. Patients were treated by subcutaneous injection of placebo or the appropriate dose of teduglutide. As individuals with short bowel syndrome are likely to experience associated liver and kidney disease, known biomarkers of liver and kidney function were monitored every four weeks, for 24 weeks. The liver biomarkers tested included total bilirubin, ALT and AST and ALP. The kidney biomarkers tested included urea nitrogen, creatinine and GFR. Before administration of placebo or teduglutide, diagnostic biomarker levels were tested to establish a baseline for each individual.
To visualize the effect of GLP-2 on the levels of the diagnostic biomarkers, the average change from baseline was calculated for the placebo and teduglutide treated groups for each visit after a baseline was established. The average change from baseline of each group is depicted in FIGS. 1-7. The numerical figures for each diagnostic biomarker at each time point are depicted in Table 1.
The raw data for this sorting is reproduced in Table 2 below.

Structure (SMILES): CC[C@H](C)[C@H](NC(=O)[C@H](Cc1ccccc1)NC(=O)[C@H](CC(=O)O)NC(=O)[C@H](CCCNC(=N)N)NC(=O)[C@H](C)NC(=O)[C@H](C)NC(=O)[C@H](CC(C)C)NC(=O)[C@H](CC(N)=O)NC(=O)[C@H](CC(=O)O)NC(=O)[C@H](CC(C)C)NC(=O)[C@@H](NC(=O)[C@@H](NC(=O)[C@H](CC(N)=O)NC(=O)[C@H](CCSC)NC(=O)[C@H](CCC(=O)O)NC(=O)[C@H](CC(=O)O)NC(=O)[C@H](CO)NC(=O)[C@H](Cc1ccccc1)NC(=O)[C@H](CO)NC(=O)CNC(=O)[C@H](CC(=O)O)NC(=O)CNC(=O)[C@@H](N)Cc1c[nH]cn1)[C@@H](C)O)[C@@H](C)CC)C(=O)N[C@@H](CC(N)=O)C(=O)N[C@@H](Cc1c[nH]c2ccccc12)C(=O)N[C@@H](CC(C)C)C(=O)N[C@H](C(=O)N[C@@H](CCC(N)=O)C(=O)N[C@H](C(=O)N[C@@H](CCCCN)C(=O)N[C@H](C(=O)N[C@H](C(=O)N[C@@H](CC(=O)O)C(=O)O)[C@@H](C)O)[C@@H](C)CC)[C@@H](C)O)[C@@H](C)CC [teduglutide]
- CREATININE (RATE BLANKED) change from baseline >5%, number of patients (week 12): 16
- CREATININE (RATE BLANKED) change from baseline >5%, percent of patients (week 12): (45.7%)
- CREATININE (RATE BLANKED) change from baseline −5% <= and <=5%, number of patients (week 12): 4
- CREATININE (RATE BLANKED) change from baseline −5% <= and <=5%, percent of patients (week 12): (11.4%)
- GFR change from baseline <−5%, number of patients (week 12): 15
- GFR change from baseline <−5%, percent of patients (week 12): (42.9%)
- GFR change from baseline >5%, number of patients (week 12): 6
- GFR change from baseline >5%, percent of patients (week 12): (17.1%)
- GFR change from baseline −5% <= and <=5%, number of patients (week 12): 5
- GFR change from baseline −5% <= and <=5%, percent of patients (week 12): (14.3%)
- UREA NITROGEN change from baseline <−5%, number of patients (week 12): 17
- UREA NITROGEN change from baseline <−5%, percent of patients (week 12): (48.6%)
- UREA NITROGEN change from baseline >5%, number of patients (week 12): 6
- UREA NITROGEN change from baseline >5%, percent of patients (week 12): (17.1%)
- UREA NITROGEN change from baseline −5% <= and <=5%, number of patients (week 12): 4
- UREA NITROGEN change from baseline −5% <= and <=5%, percent of patients (week 12): (11.4%)
- CREATININE (RATE BLANKED) change from baseline <−5%, number of patients (week 16): 8
- CREATININE (RATE BLANKED) change from baseline <−5%, percent of patients (week 16): (22.9%)
- CREATININE (RATE BLANKED) change from baseline >5%, number of patients (week 16): 8
- CREATININE (RATE BLANKED) change from baseline >5%, percent of patients (week 16): (22.9%)
- CREATININE (RATE BLANKED) change from baseline −5% <= and <=5%, number of patients (week 16): 12
- CREATININE (RATE BLANKED) change from baseline −5% <= and <=5%, percent of patients (week 16): (34.3%)
- GFR change from baseline <−5%, number of patients (week 16): 7
- GFR change from baseline <−5%, percent of patients (week 16): (20.0%)
- GFR change from baseline >5%, number of patients (week 16): 11
- GFR change from baseline >5%, percent of patients (week 16): (31.4%)
- GFR change from baseline −5% <= and <=5%, number of patients (week 16): 10
- GFR change from baseline −5% <= and <=5%, percent of patients (week 16): (28.6%)
- UREA NITROGEN change from baseline <−5%, number of patients (week 16): 12
- UREA NITROGEN change from baseline <−5%, percent of patients (week 16): (34.3%)
- UREA NITROGEN change from baseline >5%, number of patients (week 16): 10
- UREA NITROGEN change from baseline >5%, percent of patients (week 16): (28.6%)
- UREA NITROGEN change from baseline −5% <= and <=5%, number of patients (week 16): 6
- UREA NITROGEN change from baseline −5% <= and <=5%, percent of patients (week 16): (17.1%)
- CREATININE (RATE BLANKED) change from baseline <−5%, number of patients (week 20): 9
- CREATININE (RATE BLANKED) change from baseline <−5%, percent of patients (week 20): (25.7%)
- CREATININE (RATE BLANKED) change from baseline >5%, number of patients (week 20): 10
- CREATININE (RATE BLANKED) change from baseline >5%, percent of patients (week 20): (28.6%)
- CREATININE (RATE BLANKED) change from baseline −5% <= and <=5%, number of patients (week 20): 8
- CREATININE (RATE BLANKED) change from baseline −5% <= and <=5%, percent of patients (week 20): (22.9%)
- GFR change from baseline <−5%, number of patients (week 20): 10
- GFR change from baseline <−5%, percent of patients (week 20): (28.6%)
- GFR change from baseline >5%, number of patients (week 20): 10
- GFR change from baseline >5%, percent of patients (week 20): (28.6%)
- GFR change from baseline −5% <= and <=5%, number of patients (week 20): 7
- GFR change from baseline −5% <= and <=5%, percent of patients (week 20): (20.0%)
- UREA NITROGEN change from baseline <−5%, number of patients (week 20): 13
- UREA NITROGEN change from baseline <−5%, percent of patients (week 20): (37.1%)
- UREA NITROGEN change from baseline >5%, number of patients (week 20): 7
- UREA NITROGEN change from baseline >5%, percent of patients (week 20): (20.0%)
- UREA NITROGEN change from baseline −5% <= and <=5%, number of patients (week 20): 7
- UREA NITROGEN change from baseline −5% <= and <=5%, percent of patients (week 20): (20.0%)
- CREATININE (RATE BLANKED) change from baseline <−5%, number of patients (week 24): 8
- CREATININE (RATE BLANKED) change from baseline <−5%, percent of patients (week 24): (22.9%)
- CREATININE (RATE BLANKED) change from baseline >5%, number of patients (week 24): 9
- CREATININE (RATE BLANKED) change from baseline >5%, percent of patients (week 24): (25.7%)
- CREATININE (RATE BLANKED) change from baseline −5% <= and <=5%, number of patients (week 24): 9
- CREATININE (RATE BLANKED) change from baseline −5% <= and <=5%, percent of patients (week 24): (25.7%)
- GFR change from baseline <−5%, number of patients (week 24): 8
- GFR change from baseline <−5%, percent of patients (week 24): (22.9%)
- GFR change from baseline >5%, number of patients (week 24): 10
- GFR change from baseline >5%, percent of patients (week 24): (28.6%)
- GFR change from baseline −5% <= and <=5%, number of patients (week 24): 8
- GFR change from baseline −5% <= and <=5%, percent of patients (week 24): (22.9%)
- UREA NITROGEN change from baseline <−5%, number of patients (week 24): 17
- UREA NITROGEN change from baseline <−5%, percent of patients (week 24): (48.6%)
- UREA NITROGEN change from baseline >5%, number of patients (week 24): 7
- UREA NITROGEN change from baseline >5%, percent of patients (week 24): (20.0%)
- UREA NITROGEN change from baseline −5% <= and <=5%, number of patients (week 24): 2
- UREA NITROGEN change from baseline −5% <= and <=5%, percent of patients (week 24): (5.7%)
